The values below come from publication PMC8333425, “Discovery of a dual Ras and ARF6 inhibitor from a GPCR endocytosis screen” (Nature Communications, 2021).

What all share (test): KINOMEscan kinase binding assay
For experiment [1], the target named is T1, 384 kinases from the human genome (Homo sapiens, UniProt Q14012).
T1 construct: purchased Eurofin/DiscoverX
Conditions: kinase CAMK1 (Entrez CAMK1). In short, it runs like this:
(§1)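 A panel of 384 human kinases was profiled by KINOMEscan binding in the presence of 10 µM compound. Kinase–ligand binding was given as percent of DMSO control, averaged from duplicates in a single run, with an S(10) selectivity score.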

Experiment [2] has as its target T2, 384 kinases from the human genome (Homo sapiens, UniProt Q9BWU1).
T2 construct: purchased Eurofin/DiscoverX
Conditions: kinase CDK11 (Entrez CDK19). In short, it runs like this:
as §1

Experiment [3] addresses T3, 384 kinases from the human genome (Homo sapiens, UniProt Q9H093).
T3 construct: purchased Eurofin/DiscoverX
The following applies: kinase SNARK (Entrez NUAK2). The essentials:
as §1

Experiment [4] addresses T4, 384 kinases from the human genome (Homo sapiens, UniProt Q9Y3S1).
T4 construct: purchased Eurofin/DiscoverX
The following applies: kinase WNK2 (Entrez WNK2). The essentials: as §1

Experiment [5] addresses T5, 384 kinases from the human genome (Homo sapiens, UniProt P28482).
T5 construct: purchased Eurofin/DiscoverX
The following applies: kinase ERK2 (Entrez MAPK1). In short, it runs like this: as §1

Experiment [6] addresses T6, 384 kinases from the human genome (Homo sapiens, UniProt P07333).
T6 construct: purchased Eurofin/DiscoverX
In short, it runs like this: as §1

Experiment [7] addresses T7, 384 kinases from the human genome (Homo sapiens, UniProt P31749).
T7 construct: purchased Eurofin/DiscoverX
The following applies: kinase AKT1 (Entrez AKT1). In short, it runs like this: as §1

Experiment [8] has as its target T8, 384 kinases from the human genome (Homo sapiens, UniProt P36888).
T8 construct: purchased Eurofin/DiscoverX
T8 sequence (P36888 27-993): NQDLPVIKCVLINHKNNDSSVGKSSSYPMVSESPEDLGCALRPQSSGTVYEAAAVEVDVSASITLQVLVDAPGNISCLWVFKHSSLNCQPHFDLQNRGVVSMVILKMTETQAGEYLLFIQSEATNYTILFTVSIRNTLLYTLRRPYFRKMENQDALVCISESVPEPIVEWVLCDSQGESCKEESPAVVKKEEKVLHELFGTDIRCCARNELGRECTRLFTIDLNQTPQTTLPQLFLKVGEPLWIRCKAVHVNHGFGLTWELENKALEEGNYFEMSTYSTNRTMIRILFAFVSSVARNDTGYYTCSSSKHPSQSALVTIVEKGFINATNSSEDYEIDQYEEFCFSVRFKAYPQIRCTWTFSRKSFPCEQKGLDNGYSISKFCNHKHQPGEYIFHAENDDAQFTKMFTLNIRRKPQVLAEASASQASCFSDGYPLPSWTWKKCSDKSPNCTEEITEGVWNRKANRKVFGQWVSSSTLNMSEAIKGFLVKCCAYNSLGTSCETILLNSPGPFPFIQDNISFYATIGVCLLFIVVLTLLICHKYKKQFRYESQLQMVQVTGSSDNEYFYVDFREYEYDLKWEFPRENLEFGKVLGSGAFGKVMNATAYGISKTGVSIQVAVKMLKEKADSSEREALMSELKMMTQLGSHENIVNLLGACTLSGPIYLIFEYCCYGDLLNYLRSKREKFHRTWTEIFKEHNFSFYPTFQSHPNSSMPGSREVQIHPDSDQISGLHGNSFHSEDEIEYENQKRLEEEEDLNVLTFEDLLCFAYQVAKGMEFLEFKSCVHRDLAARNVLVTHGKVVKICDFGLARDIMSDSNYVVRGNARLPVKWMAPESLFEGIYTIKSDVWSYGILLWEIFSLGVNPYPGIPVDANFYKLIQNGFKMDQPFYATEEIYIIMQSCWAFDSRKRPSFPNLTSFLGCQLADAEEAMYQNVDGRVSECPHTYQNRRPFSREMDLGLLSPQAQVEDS
The essentials: as §1

For experiment [9], the target named is T9, 384 kinases from the human genome (Homo sapiens, UniProt P11309).
T9 construct: purchased Eurofin/DiscoverX
T9 sequence (P11309 whole entry): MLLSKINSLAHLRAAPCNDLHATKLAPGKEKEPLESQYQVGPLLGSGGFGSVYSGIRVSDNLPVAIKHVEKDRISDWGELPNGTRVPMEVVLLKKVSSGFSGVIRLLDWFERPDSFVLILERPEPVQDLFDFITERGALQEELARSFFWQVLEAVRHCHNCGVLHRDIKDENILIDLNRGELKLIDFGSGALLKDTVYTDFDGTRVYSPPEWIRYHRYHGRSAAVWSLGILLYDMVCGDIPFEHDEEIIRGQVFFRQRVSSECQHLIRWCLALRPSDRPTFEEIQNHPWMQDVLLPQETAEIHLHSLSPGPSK
Conditions: kinase PIM1 (Entrez PIM1). In short, it runs like this: as §1

Experiment [10] concerns the target T10, 384 kinases from the human genome (Homo sapiens, UniProt Q14680).
T10 construct: purchased Eurofin/DiscoverX
The following applies: kinase MELK (Entrez MELK). The essentials: as §1

The target of experiment [11] is T11, 384 kinases from the human genome (Homo sapiens, UniProt Q32MK0).
T11 construct: purchased Eurofin/DiscoverX
T11 sequence (Q32MK0 whole entry): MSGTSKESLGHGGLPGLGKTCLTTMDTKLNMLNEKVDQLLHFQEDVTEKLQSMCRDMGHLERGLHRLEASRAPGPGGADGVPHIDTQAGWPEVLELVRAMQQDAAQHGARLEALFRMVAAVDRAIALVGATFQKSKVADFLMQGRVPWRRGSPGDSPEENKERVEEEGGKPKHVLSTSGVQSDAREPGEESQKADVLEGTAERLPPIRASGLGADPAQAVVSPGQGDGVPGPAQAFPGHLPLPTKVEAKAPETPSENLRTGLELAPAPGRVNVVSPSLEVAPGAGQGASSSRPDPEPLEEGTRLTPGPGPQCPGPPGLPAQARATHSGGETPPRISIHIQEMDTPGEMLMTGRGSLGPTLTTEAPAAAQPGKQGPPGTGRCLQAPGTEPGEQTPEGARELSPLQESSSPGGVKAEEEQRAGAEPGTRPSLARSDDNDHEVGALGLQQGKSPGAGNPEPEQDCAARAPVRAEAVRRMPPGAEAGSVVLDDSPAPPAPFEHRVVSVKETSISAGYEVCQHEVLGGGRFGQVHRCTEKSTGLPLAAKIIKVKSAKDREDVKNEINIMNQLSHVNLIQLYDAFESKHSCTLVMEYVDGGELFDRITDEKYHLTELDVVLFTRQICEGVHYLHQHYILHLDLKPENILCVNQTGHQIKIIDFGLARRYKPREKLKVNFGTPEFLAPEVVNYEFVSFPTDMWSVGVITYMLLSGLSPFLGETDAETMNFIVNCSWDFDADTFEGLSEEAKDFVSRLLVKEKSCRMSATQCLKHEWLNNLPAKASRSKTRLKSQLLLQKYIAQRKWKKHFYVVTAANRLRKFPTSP
Conditions: kinase MLCK (Entrez MYLK3). In short, it runs like this: as §1

The target in experiment [12] is T12, 384 kinases from the human genome (Homo sapiens, UniProt Q9H2G2).
T12 construct: purchased Eurofin/DiscoverX
The following applies: kinase SLK (Entrez SLK). The essentials:
as §1

Experiment [13] has as its target T13, 384 kinases from the human genome (Homo sapiens, UniProt P50750).
T13 construct: purchased Eurofin/DiscoverX
The following applies: kinase CDK9 (Entrez CDK9). The essentials:
as §1

Experiment [14] deals with T14, 384 kinases from the human genome (Homo sapiens, UniProt Q02156).
T14 construct: purchased Eurofin/DiscoverX
Conditions: kinase PRKCE (Entrez PRKCE). The essentials: as §1

Experiment [15] deals with T15, 384 kinases from the human genome (Homo sapiens, UniProt Q8NI60).
T15 construct: purchased Eurofin/DiscoverX
T15 sequence (Q8NI60 163-647): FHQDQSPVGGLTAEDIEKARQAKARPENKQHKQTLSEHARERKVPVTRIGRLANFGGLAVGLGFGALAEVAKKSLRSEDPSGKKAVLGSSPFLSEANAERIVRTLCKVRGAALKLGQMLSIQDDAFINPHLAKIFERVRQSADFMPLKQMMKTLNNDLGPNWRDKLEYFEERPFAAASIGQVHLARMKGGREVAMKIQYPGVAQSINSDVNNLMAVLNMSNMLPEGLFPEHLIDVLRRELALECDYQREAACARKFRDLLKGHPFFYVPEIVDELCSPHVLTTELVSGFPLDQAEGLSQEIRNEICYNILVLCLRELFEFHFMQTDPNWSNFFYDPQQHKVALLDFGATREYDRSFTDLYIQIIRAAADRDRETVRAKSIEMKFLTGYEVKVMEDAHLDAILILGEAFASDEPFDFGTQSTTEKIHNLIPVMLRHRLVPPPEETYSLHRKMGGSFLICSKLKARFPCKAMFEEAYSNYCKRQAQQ
The following applies: kinase ADCK3 (Entrez CABC1). The essentials: as §1

In experiment [16] the target is T16, 384 kinases from the human genome (Homo sapiens, UniProt Q6PHR2).
T16 construct: purchased Eurofin/DiscoverX
T16 sequence (Q6PHR2 whole entry): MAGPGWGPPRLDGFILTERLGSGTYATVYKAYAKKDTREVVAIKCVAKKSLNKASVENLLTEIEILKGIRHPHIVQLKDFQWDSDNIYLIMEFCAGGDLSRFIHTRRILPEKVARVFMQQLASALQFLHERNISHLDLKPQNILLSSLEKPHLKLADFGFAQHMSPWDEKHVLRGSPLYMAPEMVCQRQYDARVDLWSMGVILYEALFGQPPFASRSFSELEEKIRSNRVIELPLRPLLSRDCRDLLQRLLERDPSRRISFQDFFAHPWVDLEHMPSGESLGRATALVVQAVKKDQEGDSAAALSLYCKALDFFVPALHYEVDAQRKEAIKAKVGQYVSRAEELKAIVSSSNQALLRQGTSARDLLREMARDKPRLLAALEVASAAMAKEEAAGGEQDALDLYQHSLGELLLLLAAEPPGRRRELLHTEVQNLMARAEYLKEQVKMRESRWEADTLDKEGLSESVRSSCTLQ
The following applies: kinase ULK3 (Entrez ULK3). In short, it runs like this:
as §1

T6 sequence (P07333 20-972): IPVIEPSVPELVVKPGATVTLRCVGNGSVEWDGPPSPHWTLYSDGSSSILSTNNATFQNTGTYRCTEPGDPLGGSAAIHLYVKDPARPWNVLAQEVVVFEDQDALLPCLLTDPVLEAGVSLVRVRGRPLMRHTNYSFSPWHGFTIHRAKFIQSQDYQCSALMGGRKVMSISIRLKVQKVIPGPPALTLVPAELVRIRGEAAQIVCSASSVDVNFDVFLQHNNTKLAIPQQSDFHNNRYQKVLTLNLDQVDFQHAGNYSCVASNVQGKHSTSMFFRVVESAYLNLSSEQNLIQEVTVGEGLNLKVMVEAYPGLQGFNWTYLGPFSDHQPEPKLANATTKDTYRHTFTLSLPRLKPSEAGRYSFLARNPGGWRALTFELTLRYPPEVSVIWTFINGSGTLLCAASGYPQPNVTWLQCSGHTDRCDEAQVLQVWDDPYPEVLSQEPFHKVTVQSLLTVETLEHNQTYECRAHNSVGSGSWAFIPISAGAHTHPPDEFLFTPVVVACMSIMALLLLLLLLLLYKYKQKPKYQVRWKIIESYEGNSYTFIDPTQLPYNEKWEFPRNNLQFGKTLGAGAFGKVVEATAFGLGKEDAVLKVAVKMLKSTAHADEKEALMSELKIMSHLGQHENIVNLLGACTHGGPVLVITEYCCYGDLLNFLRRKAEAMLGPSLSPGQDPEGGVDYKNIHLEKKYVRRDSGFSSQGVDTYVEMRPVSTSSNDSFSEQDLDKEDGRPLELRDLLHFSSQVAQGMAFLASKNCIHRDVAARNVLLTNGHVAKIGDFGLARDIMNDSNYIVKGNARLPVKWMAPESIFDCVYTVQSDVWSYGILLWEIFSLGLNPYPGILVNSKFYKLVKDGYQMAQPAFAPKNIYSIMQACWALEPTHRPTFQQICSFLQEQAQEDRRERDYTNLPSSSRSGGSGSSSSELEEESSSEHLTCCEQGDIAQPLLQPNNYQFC
T3 sequence (Q9H093 whole entry): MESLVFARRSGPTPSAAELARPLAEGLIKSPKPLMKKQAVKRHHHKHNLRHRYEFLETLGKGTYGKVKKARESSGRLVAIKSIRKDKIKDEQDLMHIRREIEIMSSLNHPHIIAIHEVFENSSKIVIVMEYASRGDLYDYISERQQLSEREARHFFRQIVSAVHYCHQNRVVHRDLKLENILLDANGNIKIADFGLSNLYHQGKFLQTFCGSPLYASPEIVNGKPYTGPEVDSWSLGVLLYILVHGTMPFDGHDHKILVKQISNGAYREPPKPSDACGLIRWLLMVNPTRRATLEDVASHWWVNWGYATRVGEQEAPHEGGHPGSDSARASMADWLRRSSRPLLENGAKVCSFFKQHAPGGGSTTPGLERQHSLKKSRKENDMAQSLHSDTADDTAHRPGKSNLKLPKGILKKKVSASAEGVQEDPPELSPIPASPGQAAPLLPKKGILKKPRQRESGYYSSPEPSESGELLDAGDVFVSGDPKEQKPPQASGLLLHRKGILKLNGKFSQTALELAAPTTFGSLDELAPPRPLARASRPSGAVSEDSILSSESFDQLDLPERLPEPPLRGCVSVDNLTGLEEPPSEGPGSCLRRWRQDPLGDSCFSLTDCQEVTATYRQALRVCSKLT
T7 sequence (P31749 whole entry): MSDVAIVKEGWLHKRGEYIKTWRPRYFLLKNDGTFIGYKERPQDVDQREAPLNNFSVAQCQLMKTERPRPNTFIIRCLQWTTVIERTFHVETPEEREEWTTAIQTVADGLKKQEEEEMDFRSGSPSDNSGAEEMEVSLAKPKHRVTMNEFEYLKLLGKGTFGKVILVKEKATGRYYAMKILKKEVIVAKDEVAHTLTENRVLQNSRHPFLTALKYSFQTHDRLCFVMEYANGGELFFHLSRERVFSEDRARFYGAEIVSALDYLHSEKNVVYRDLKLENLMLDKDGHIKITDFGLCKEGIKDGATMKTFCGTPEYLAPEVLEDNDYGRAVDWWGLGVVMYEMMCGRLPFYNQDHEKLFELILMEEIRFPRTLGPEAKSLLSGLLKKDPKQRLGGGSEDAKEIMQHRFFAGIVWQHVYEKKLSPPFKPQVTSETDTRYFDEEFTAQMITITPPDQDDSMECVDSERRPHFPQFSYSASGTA
T2 sequence (Q9BWU1 whole entry): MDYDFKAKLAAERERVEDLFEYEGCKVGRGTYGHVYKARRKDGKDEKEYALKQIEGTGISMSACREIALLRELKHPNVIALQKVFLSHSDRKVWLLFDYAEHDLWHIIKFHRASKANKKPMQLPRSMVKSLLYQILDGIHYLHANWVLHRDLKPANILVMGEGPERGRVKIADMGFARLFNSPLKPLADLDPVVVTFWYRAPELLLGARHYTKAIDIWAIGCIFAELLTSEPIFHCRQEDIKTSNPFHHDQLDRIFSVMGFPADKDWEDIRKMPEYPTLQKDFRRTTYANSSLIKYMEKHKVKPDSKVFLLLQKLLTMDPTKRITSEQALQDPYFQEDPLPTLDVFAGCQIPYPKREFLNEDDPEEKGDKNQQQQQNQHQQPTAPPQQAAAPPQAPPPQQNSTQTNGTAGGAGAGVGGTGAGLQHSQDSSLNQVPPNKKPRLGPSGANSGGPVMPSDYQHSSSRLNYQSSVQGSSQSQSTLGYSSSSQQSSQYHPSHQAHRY
T1 sequence (Q14012 whole entry): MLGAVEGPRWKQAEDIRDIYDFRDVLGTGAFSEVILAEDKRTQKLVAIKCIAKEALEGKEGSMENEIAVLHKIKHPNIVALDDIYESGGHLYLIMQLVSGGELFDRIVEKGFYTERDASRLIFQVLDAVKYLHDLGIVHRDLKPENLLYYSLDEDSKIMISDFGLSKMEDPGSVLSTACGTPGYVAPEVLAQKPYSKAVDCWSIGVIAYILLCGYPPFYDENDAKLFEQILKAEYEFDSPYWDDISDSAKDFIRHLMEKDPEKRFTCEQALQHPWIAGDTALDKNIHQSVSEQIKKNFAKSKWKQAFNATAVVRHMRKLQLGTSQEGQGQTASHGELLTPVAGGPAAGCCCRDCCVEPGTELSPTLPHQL

Regarding `CC(C)C(=O)N1CCN(c2ccc(NC(=O)c3cc4ccccc4o3)cc2Cl)CC1` [Compound 21], the “Percent Control” value in experiment [1] was 95%; in experiment [2], 100%; in experiment [3] it was 96%; in [4], 100%; in experiment [5], 97%; in experiment [6] (kinase CSF1R (Entrez CSF1R)), 73%. The “Percent Control” value is reported as 100% in [6] (kinase CSF1R-autoinhibited (Entrez CSF1R)); 97% in [7]; 6.6% in experiment [8] (kinase FLT3 (Entrez FLT3)); 71% in experiment [8] (kinase FLT3-autoinhibited (Entrez FLT3)); 96% in experiment [9]; 29% in experiment [10]. The “Percent Control” value is 90% in experiment [11]; 100% in [12]; 99% in experiment [13]; 99% in [14]; 64% in [15]; 87% in experiment [16]. In addition, the “FLT3 binding to its ligand affected” value in experiment [8] (10 µM of 21, compared to DMSO (100%)) is given as “more than 90%”.
